According to patent US20210087279A1, “REGULATABLE CHIMERIC ANTIGEN RECEPTOR” (Novartis AG, priority 2014, published 2021):
One block for each compound: values may come before it.

Columns and labels:
[1] = test system: NFAT activation in Jurkat cells with NFAT-LUC reporter (JNL); assay: Jurkat NFAT-LUC assay, peptide tag (myc/Flag) dimerization switch; format: cell-based
Procedure: The non-regulatable CAR construct, 139scFv-BBZ, SEQ ID: 7, will be used as a control. Jurkat cells with NFAT-LUC reporter (JNL) were grown to the density of 0.5×10^6/ml in Jurkat cell growth media with puromycin at 0.5 μg/ml. For each transfection 2.5×10^6 cells were spun down at 100 g for 10 minutes. Two μg of DNA per construct was used per transfection. Amaxa Nucleofector solution V and supplement I were mixed and 100 μl was added into the tube with DNA construct. The mixture was then added to the cells and transferred to the electroporation cuvette. Electroporation was done under setting X-001 using Amaxa Nucleofector II Device. 0.5 ml of growth media was added immediately after eletroporation and the mixture were transferred into 2 ml growth media in one well of the 6-well plate. The cells were incubated in the 37° C. incubator with 5% CO2 overnight. Rabbit polyclonal antibody against myc tag was added to the cells which were transfected with RCAR construct with myc tag as the extracellular domain. The concentration of the polyclonal antibody was at 100 nM. One and half hour later, 100 nM of anti rabbit antibody was added in order to enhance cluster formation. The cell mixture was incubated at 37° C. for 18 hrs. Luciferase One Glo reagent 100 μl was added per well. The samples were incubated for 5 min at 37° C. and then luminescence was measured using a luminometer.
Similarly, a construct with Flag peptide tag as the extracellular domain was used to transfect reporter cells. Rabbit polyclonal antibody against Flag peptide tag was used at 100 nM; and to facilitate further clustering, an antibody against the rabbit polyclonal antibody was used at 100 nM. In addition, a construct with scFv 139 as the extracellular domain was used to transfect reporter cells, and EGFRvIII-Fc at 100 nM was used, and one and half hour later anti-Fc antibody was used.

[2] = test system: reporter under NFAT control in JNL cells; assay: Dimerization molecule dose response, single vector construct 143775 in JNL cells, CD19 target; format: cell-based; conditions: nM to sub-nM doses
Excerpt: The constructs and viral particles were made and tested essentially as described in Example 11. Viral particles were introduced into JNL cells and evaluated for activity essentially as described in Example 1 except that the target was CD19 (as opposed to EGFRviii).
Construct 143775 was introduced into cells and the affect of dimerization molecule concentration on activation evaluated essentially as described in Example 14.

[3] = molecular target: biotinylated FKBP in the presence of everolimus; assay: FRB direct binding assay (AlphaLISA); conditions: 30 nM biotinylated FKBP and FLAG FRB protein; everolimus serial diluted from 600 nM
Procedure: FRB mutations were also ranked in an alternative assay format. […] All dilutions were made in 1× AlphaLISA Immunoassay buffer (PerkinElmer). Anti-Flag acceptor beads (PerkinElmer) were added at 10 ug/ml final concentration and incubated for one hour at room temperature. Streptavidin donor beads (PerkinElmer), were then added at a final concentration of 40 ug/ml and the plate was protected from light and incubated for 30 minutes at room temperature. The plate was then read on the PerkinElmer EnVision Multiplate reader equipped with the Alpha Module using excitation of 680 nm and a 570 nm Emission filter.

[4] = test system: NFAT activation in Jurkat cells with NFAT-LUC reporter (JNL); assay: Jurkat NFAT-LUC reporter assay, EGFRvIII RCAR with intracellular FKBP/FRB switch; format: cell-based
Procedure: Jurkat cells with NFAT-LUC reporter (JNL) were grown to the density of 0.5×10^6/ml in Jurkat cell growth media with puromycin at 0.5 μg/ml. For each transfection 2.5×10^6 cells were spin down at 100 g for 10 minutes. Two μg of DNA per construct were used per transfection. Amaxa Nucleofector solution V and supplement I was mixed and 100 μl was added into the tube with DNA construct. The mixture was then added to the cells and transferred to the electroporation cuvette. Electroporation was done under setting X-001 using Amaxa Nucleofector II Device. 0.5 ml of growth media was added immediately after eletroporation and the mixture were transferred into 2 ml growth media in one well of the 6-well plate. After one hour, A/Z compound was applied at the final concentration of 500 nM. The cells were incubated in the 37° C. incubator with 5% CO2 overnight for 18 hrs. Tissue culture plate was coated with 5 μg/ml of EGFRvIII-Fc or IgG1-Fc for 2 hrs, blocked with the blocking buffer (DPBS with 5% serum) for 1 hour. The transfected cells with or without A/Z compound were resuspended and added to the target plate with 100 μl per well and incubated for 18 hrs. Luciferase One Glo reagent 100 μl was added per well. The samples were incubated for 5 min at 37° C. and then luminescence is measured using a luminometer.
Specifically, JNL were grown to the density of 0.5×10^6/ml in Jurkat cell growth media with puromycin at 0.5 μg/ml. For each transfection 2.5×10^6 cells were spin down at 100 g for 10 minutes. Two μg of DNA per construct were used per transfection. Amaxa Nucleofector solution V and supplement I was mixed and 100 μl was added into the tube with DNA construct. […] The samples were incubated for 5 min at 37° C. and then luminescence is measured using a luminometer.
To determine the dose response, rapaloque (“A/C heterodimerizer” AP21967), at various concentrations, was applied to the transfected cells that were cotransfected with EGFRvIII clone 139-CD8alphaTM-FKBP (SEQ ID NO: 5, construct 66) and FRB-4-1BB-CD3zeta (SEQ ID NO: 6, construct 67) and NFAT activation was measured. […]

[5] = test system: NFAT activation in Jurkat cells with NFAT-LUC reporter (JNL), PDL1-Fc target; assay: Activation assay of redirected inhibitory PD1 CAR / PD1 RCAR; format: cell-based
Procedure: Jurkat cells with NFAT-LUC reporter (JNL) were grown to the density of 0.5×10^6/ml in Jurkat cell growth media with puromycin at 0.5 μg/ml. For each transfection 3×10^6 cells were spin down at 100 g for 10 minutes. Four μg DNA per construct were used per transfection. Amaxa Nucleofector solution V and supplement I was mixed and 100 μl was added into the tube with DNA construct. The mixture was then added to the cells and transferred to the electroporation cuvette. Electroporation was done under setting X-001 using Amaxa Nucleofector II Device. 0.5 ml of growth media was added immediately after eletroporation and the mixture were transferred into 2 ml growth media in one well of the 6-well plate. After two hours, the rapalogue compound at various concentrations was added to cells. The cells were applied to tissue culture plate wells that were coated by the target. Tissue culture plate was coated with 5 μg/ml of PDL1-Fc or IgG1-Fc or any target for 2 hrs at 37° C., then blocked with the blocking buffer (DPBS with 5% serum) for 30 minutes. The transfected cells were added to the target plate with 100 μl per well and incubated further for 16 hrs. Luciferase One Glo reagent 100 μl was added per well. The samples were incubated for 5 min at 37° C. and then luminescence is measured using Envision plate reader. […]

[6] = test system: NFAT activation in Jurkat cells with NFAT-LUC reporter (JNL); assay: Jurkat NFAT-LUC assay, EGFRvIII RCAR with extracellular FKBP/FRB switch; format: cell-based; conditions: 250 nM, external switch
Procedure: In this example, the switch is designed by fusing a leader sequence to the 139 scFv followed by linker and the first switch domain—FKBP, a hinge region and a transmembrane region (SEQ ID NO: 31). The second construct is designed by fusing a leader sequence to the FRB switch domain, a transmembrane region and the intracellular signaling domains 4-1BB followed by CD3zeta (SEQ ID NO: 32). The extracellular switch transfections and activations were carried out essentially as described for the intacellular switches in Example 1.

Chain of biotinylated FKBP in the presence of everolimus (P62942 2-108 limits assumed): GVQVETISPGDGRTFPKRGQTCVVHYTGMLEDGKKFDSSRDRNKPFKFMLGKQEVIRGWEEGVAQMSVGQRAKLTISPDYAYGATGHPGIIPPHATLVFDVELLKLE

EC50 [3]: 3.9 nM
Compound: Wild type FRB: wild-type FRB; His-FRB SEQ ID NO: 206 (competition), His-FLAG-FRB SEQ ID NO: 212 (direct binding)

EC50 [3]: 2.46 nM
Compound: E2032I: FRB point mutant; His-FRB SEQ ID NO: 207, His-FLAG-FRB SEQ ID NO: 213

EC50 [3]: 2.15 nM
Compound: E2032L: FRB point mutant; His-FRB SEQ ID NO: 208, His-FLAG-FRB SEQ ID NO: 214

Second part, the compound before the results:

Compound: RCAR with c-myc peptide tag: c-myc peptide tag fused to linker, 4-1BB and CD3zeta, SEQ ID NO: 21
activation after addition of anti rabbit antibody ([1]; anti-myc antibody 100 nM plus anti rabbit antibody 100 nM): further enhanced
NFAT activity ([1]; rabbit polyclonal anti-myc antibody 100 nM, compared to other antibodies): higher NFAT activity

Compound: CO[C@H]1C[C@@H]2CC[C@@H](C)[C@@](O)(O2)C(=O)C(=O)N2CCCC[C@H]2C(=O)O[C@H]([C@H](C)C[C@@H]2CC[C@@H](O)[C@H](OC)C2)CC(=O)[C@H](C)/C=C(\C)[C@@H](O)[C@@H](OC)C(=O)[C@H](C)C[C@H](C)/C=C/C=C/C=C/1C [rapamycin]
activation [2]: effective at a broad range of concentrations

Compound: RCAR with Flag tag: flag peptide tag fused to linker, 4-1BB and CD3zeta, SEQ ID NO: 20
activation ([1]; rabbit polyclonal anti-Flag antibody and anti-rabbit antibody, 100 nM each): only showed activation when both crosslinking reagents were added

Compound: T2098L: FRB point mutant; His-FRB SEQ ID NO: 209, His-FLAG-FRB SEQ ID NO: 215
EC50 [3]: 1.44 nM

Compound: CO[C@H]1[C@@H](O)[C@H](C)C[C@H](C)/C=C/C=C/C=C(\C)[C@@H](c2c[nH]c3c(C)cccc23)C[C@@H]2CC[C@@H](C)[C@@](O)(O2)C(=O)C(=O)N2CCCC[C@H]2C(=O)O[C@H]([C@H](C)CC2CC[C@@H](O)[C@H](OC)C2)C[C@H](O)[C@H](C)/C=C(\C)[C@H]1O (some centres unmarked) [AP21967]
fold of induction of NFAT mediated by the target ([4]; 0.8 nM rapalogue, constructs 66 and 67): 2-3 fold
fold activation of NFAT ([4]; 500 nM to as low as 20 nM, constructs 66 and 67, FIG. 12B): remained relatively constant
target regulated activation ([4]; 500 nM, EGFRvIII-Fc target, FIG. 12A): significant target regulated activation
induction of signaling by PDL-1 target ([5]; 500 nM AP21967, PD1 RCAR (PD1-ECD-TM-FRB and FKBP-41BB-CD3 zeta)): significant induction of signaling
dose response, activation of NFAT signaling ([5]; varying concentrations, PD1 RCAR, FIG. 18): potent even at sub nM concentration
target regulated activation [6]: significant target regulated activation
